Measurements reported in US11371097B2, “Articles for diagnosis of liver fibrosis” (THE GOVERNMENT OF THE UNITED STATES, as represented by THE …, priority 2015, dated 2022).
Entries after “also recorded” stand apart in the source; their conditions may differ.

Experiments:
[1] = tested on: Timp1; experiment: qPCR of liver RNA: Timp1; type: in vivo, Male Sprague-Dawley rats; conditions: across dose groups, vs control
Method: (§1) Working on dry ice, a portion (−10 mg) of flash-frozen liver was cut from each sample and transferred to a clean, labeled tube. Total RNA was then isolated using Qiagen's miRNeasy 96 kit (Qiagen, Valencia, Calif.) following manufacturer's instructions with a final elution volume of −150 μL (2×75 μL). The quality and quantity of RNA samples were evaluated with a 2100 Bioanalyzer (Agilent Technologies, Santa Clara, Calif.), using the Agilent RNA 6000 Nano Reagents and a multiwell NanoDrop 8000 spectrophotometer (Thermo Fisher Scientific, Waltham, Mass.).
(§2) Using 1 μg RNA input, cDNA was generated using a QuantiTect Reverse Transcription kit (Qiagen, Valencia, Calif.) following manufacturer's instructions. Applied Biosystems SYBR Green Master Mix was used in a 20 μL qPCR reaction with 2 μL of cDNA template and a 2.tM final concentration of each primer. A total of five genes were targeted (Gapdh, Actb, Timp1, Tgfbl, and Psma5), two of which served as the endogenous controls (Gapdh and Actb). An Applied Biosystems 7500 Real-Time PCR System (Applied Biosystems, Foster City, Calif.) was used for thermal cycling and fluorescence detection using the default settings for Quantitation-Comparative CT with SYBR® . . . Green Reagents which uses the following scheme: 95° C. for 10 minutes followed by 40 cycles of: 95° C. for 15 seconds, 60° C. for 1 minute, and a fluorescence signal read. […]

[2] = tested on: tissue, plasma, or serum protein abundance; experiment: Global semiquantitative proteomics (iTRAQ mass spectrometry) of tissue, plasma, serum; type: in vivo, Rattus norvegicus; conditions: for Differentially expressed proteins: global proteomics
Description: Global semiquantitative proteomics analysis (iTRAQ analysis) identified protein products of a subset of the 24 genes differentially expressed in liver tissue specific for the fibrosis phenotype (Table 6). Six protein products were identified in plasma, four in the serum, and two in the liver tissue (Table 6). All protein products were identified in the contrast analysis as specific for the fibrosis phenotype. The direction of the changes in protein products matched the transcriptomics data with the exception of insulin-like growth factor binding protein complex acid labile subunit precursor. […] (Ippolito D L, et. al. Gene expression patterns associated with histopathology in toxic liver fibrosis. Tox Sci. 2015 Sep. 22. pii: kfv214)
(§3) Serum miRNA expression was measured by next-generation sequencing. Gene expression in the liver was determined by microarray, and global serum and liver protein expression was determined by semi-quantitative mass spectrometry. […] Transcriptomic analysis identified 506 differentially expressed genes in the liver. 13 miRNAs were predicted to target 100 unique differentially expressed genes in the liver. Global proteomics analysis identified 131 differentially expressed proteins in the liver and 53 in the serum. Of these, 7 miRNAs targeted 13 unique genes coding for differentially expressed liver tissue proteins and 3 miRNAs targeted 3 unique genes coding for serum proteins. These 16 differentially expressed miRNAs in the serum are predicted to target and potentially regulate gene expression contributing to the progression of toxic liver injury. (Fermenter M G et al. Serum miRNA as prognostic indicators of toxic liver injury. Submitted abstract in October 2015 for presentation at the Society of Toxicology in March 2016 (New Orleans, La.)).

[3] = tested on: serum miRNA; experiment: Serum miRNA expression by next-generation sequencing; type: in vivo, rats; conditions: FDR<0.05
Method: as §3

[4] = tested on: liver gene expression; experiment: Liver gene expression by microarray (transcriptomic analysis); type: in vivo, rats
Method: as §3

[5] = tested on: Psma5; experiment: qPCR of liver RNA: Psma5; type: in vivo, Male Sprague-Dawley rats; conditions: high-dose group with vacuolation pathology; p<0.05
Method: as §1, §2

[6] = Observation of plasma (lipemia) after dosing; type: in vivo, Male Sprague-Dawley rats; conditions: all doses
Method: Animals were observed cageside one hour following daily dose administration, then 1-2 times per day during dosing regimens. Body weights were measured daily prior to dose administration, and prior to euthanasia. Twenty-four hours after the final dose administration, animals were anesthetized with isoflurane then euthanized by exsanguination followed by decapitation. Livers were harvested at necropsy and weighed to within 0.1 g. One half of the left lobe of the liver was fixed in 10% formalin. The remaining half of the left lobe of the liver was flash frozen in liquid nitrogen, then stored below −70° C. Liver specimens were frozen in less than three minutes from time of death.

[7] = tested on: 67 genes on the fibrosis gene panel; conditions: rat, in vivo
Method: mRNA is isolated and purified from lysed tissue biopsy specimens. The target mRNA is incubated with beads conjugated to capture probes (each probe is an oligonucleotides specific for one of the genes in the panel). The target is hybridized to the probe by a capture extender-capture probe interaction. Specific mRNA targets hybridize overnight to the respective beads. The signal is amplified by incubating mRNA-capture probe pairs by affixing an amplifier affixed to a biotinylated label probe. Streptavidin-conjugated phycoerythrin (SAPE) is bound to the biotinylated probe to amplify the signal. The signal is detected and quantified by Bioplex suspension array instrumentation, which measures the SAPE fluorescence signal proportional to the amount of mRNA transcripts captured by the bead.
Candidate genes identified by co-expression modules and pathway/network approaches were fabricated into a custom gene panel using a commercial source (the QuantiGene 2.0 Plex assay, Affymetrix, Santa Clara, Calif.). A total of 71 genes plus 3 housekeeping genes were selected. Using 150 ng RNA input, samples were processed following manufacturer's instructions for purified RNA with use of the HandHeld Magnetic Plate Washer. Plates were read immediately following the final wash using the BioPlex 200 instrument (BioRad, Hercules, Calif.). The following parameters were set on the BioPlex instrument: sample size=100 μL; DD Gate=5,000-25,000; Timeout=45 sec; Bead Event/Bead Region=100.
For each sample, the average signal intensity was determined as recommended by the manufacturer. Duplicates were averaged. The average background signal for each gene was subtracted. Assay limit of detection was determined by adding three standard deviations of assay background signals to the average intensity of the background control wells. All intensities lower than the limit of detection for each probe was set to one unit above the probe's limit of detection. Probes with all intensities below the assay limit of detection were removed from the final analysis. The test gene signal was divided by the average intensities of the three normalization genes (Gapdh, Hprt1, Ppib). For each test gene, the fold change was calculated by dividing the normalized value for the treated samples by the normalized value of the vehicle-treated controls. Fold changes were plotted as log2 fold change. Gene expression data were imported into Partek Genomics Suite 6.0 (Partek, Inc., St. Louis, Mo.). Principal component analysis was used for multivariate interpretation to determine sources of variation across sample groups (Joliffe I T, Morgan B J. Principal component analysis and exploratory factor analysis. Statistical methods in medical research 1992; 1(1):69-95). Differentially expressed genes were determined by analysis of variance (ANOVA) with contrasts, setting the ANOVA factors as toxicant and the histopathological endpoint of fibrosis (any score >0). ANOVA variables were fibrosis score 0 (none) vs. score of >0 (minimal, mild, moderate, and marked). For hierarchical biclustering, differentially expressed genes were standardized by setting the genes expressed to a mean of zero and scaling to a standard deviation of one. Euclidean geometry was used to cluster row and column dissimilarity using a method of average linkage.
Chemical-dose groups were down-selected based on histopathology to conform to the 96-well assay format of the multiplexed panel of presumptive fibrosis genes. Three of the four dose groups were evaluated for the fibrogenic chemicals allyl alcohol and 4,4′-methylenedianiline. A single dose was selected with group-matched vehicle controls for each of the remaining chemicals. […] The highest dose of bromobenzene was selected because the vacuolation pathology was only observed at this dose.
Isolated liver RNA was incubated with microbead-bound capture probes specific for the 71 presumptive fibrogenic genes and three housekeeping normalization genes.

[8] = plasma, 4,4′-methylenedianiline/vehicle, Group 2
[9] = serum, 4,4′-methylenedianiline/vehicle, Group 2
[10] = tissue, 4,4′-methylenedianiline/vehicle, Group 2

Nc1ccc(Cc2ccc(N)cc2)cc1 [4,4′-methylenedianiline]
Timp1 gene expression by qPCR [1]: showed a dose-dependent increase; also recorded: dose-dependent increases in gene expression
Differentially expressed proteins ([2]; liver): 131
Fold change alpha-2-macroglobulin precursor [2, 8]: 2.2 Fold change
Fold change ceruloplasmin isoform 1 precursor [2, 8]: 2.5 Fold change
Fold change fibronectin precursor [2, 8]: −1.3 Fold change
Fold change insulin-like growth factor-binding protein complex acid labile subunit precursor [2, 8]: −1.4 Fold change
Fold change vitronectin precursor [2, 8]: −1.6 Fold change
Differentially expressed proteins ([2]; serum): 53
Fold change alpha-2-macroglobulin precursor [2, 9]: 2.4 Fold change
Fold change ceruloplasmin isoform 1 precursor [2, 9]: 2.4 Fold change
Fold change complement C1q subcomponent subunit B precursor [2, 9]: 1.6 Fold change
Fold change vitronectin precursor [2, 9]: −1.1 Fold change
Fold change ceruloplasmin isoform 1 precursor [2, 10]: 3.0 Fold change
Fold change fibronectin precursor [2, 10]: 1.4 Fold change
Differentially expressed miRNA [3]: 16
Downregulated miRNA [3]: 4
Upregulated miRNA [3]: 12
Differentially expressed genes [4]: 506

Brc1ccccc1 [bromobenzene]
Psma5 expression [5]: 2.2±0.8 fold vehicle control

C[C@@H]1C[C@H]2[C@@H]3CCC4=CC(=O)C=C[C@]4(C)[C@@]3(F)[C@@H](O)C[C@]2(C)[C@@]1(O)C(=O)CO [dexamethasone]
Lipemia (plasma appearance) [6]: resulted in lipemia (milky white plasma)
Panel genes downregulated (and upregulated in fibrogenic chemical-dose groups) [7]: 12 genes
Pcolce expression levels compared with fibrogenic compounds [7]: anti-correlated with corresponding gene expression levels induced by 4,4′-methylenedianiline and allyl alcohol
